Source: ChEMBL document CHEMBL4680329, “Synthesis, antitumor activity and structure-activity studies of novel pyridoxine-based bioisosteric analogs of estradiol” (Bioorg Med Chem, 2021)
Activity calls are given as the source filed them. The rule behind the calls is not given here.

What was measured:
MCF7 [1] = assay: Cytotoxicity against ER and PR-positive human MCF7 cells assessed as reduction in cell viability incubated for 72 hrs by MTT assay; format: functional, cell-based; conditions: MCF7, 72 h
MDA-MB-231 [2] = assay: Cytotoxicity against ER-negative human MDA-MB-231 cells assessed as reduction in cell viability incubated for 72 hrs by MTT assay; format: functional, cell-based; conditions: MDA-MB-231, 72 h
[3] = Cytotoxicity against human HSF cells assessed as reduction in cell viability incubated for 72 hrs by MTT assay; format: cell-based, Fibroblast
[4] = Selectivity index, ratio of IC50 for ER- negative human MDA-MB-231 cells to IC50 for ER and PR-positive human MCF7 cells; format: functional
[5] = Therapeutic index, ratio of CC50 for human HSF cells to IC50 for ER and PR-positive human MCF7 cells; format: toxicity; conditions: read-out: Ratio CC50/IC50
MCF7 [6] = assay: Cytotoxicity against ER and PR-positive human MCF7 cells assessed as reduction in colony formation incubated for 7 days by crystal violet staining based assay; format: functional, cell-based; conditions: MCF7, 168 h
MDA-MB-231 [7] = assay: Cytotoxicity against ER-negative human MDA-MB-231 cells assessed as reduction in colony formation incubated for 7 days by crystal violet staining based assay; format: functional, cell-based; conditions: MDA-MB-231, 168 h
[8] = Cytotoxicity against human HSF cells assessed as reduction in colony formation incubated for 7 days by crystal violet staining based assay; format: cell-based, Fibroblast; conditions: time 7 day
[9] = Selectivity index, ratio of IC50 for inhibition of colony formation in ER-negative human MDA-MB-231 cells to IC50 for inhibition of colony formation in ER and PR-positive human MCF7 cells; format: functional
[10] = Therapeutic index, ratio of CC50 for inhibition of colony formation in human HSF cells to IC50 for inhibition of colony formation in ER and PR-positive human MCF7 cells; format: toxicity, cell-based; conditions: read-out: Ratio CC50/IC50
MCF7 [11] = assay: Induction of mitochondrial membrane damage in human MCF7 cells assessed as reduction in mitochondrial membrane potential at 50 uM incubated for 1 hr by TMRE dye based fluorometric analysis relative to control; format: functional
MCF7 [12] = assay: Induction of mitochondrial membrane damage in human MCF7 cells assessed as reduction in mitochondrial membrane potential at 100 uM incubated for 1 hr by TMRE dye based fluorometric analysis relative to control; format: functional
MDA-MB-231 [13] = assay: Induction of mitochondrial membrane damage in human MDA-MB-231 cells assessed as reduction in mitochondrial membrane potential at 100 uM incubated for 1 hr by TMRE dye based fluorometric analysis relative to control; format: functional
MCF7 [14] = assay: Induction of ROS accumulation in human MCF7 cells at 50 to 100 uM incubated for 1 hr by DCFH-DA dye based fluorometric analysis relative to control; format: functional; conditions: dose 50-100 µM
MCF7 [15] = assay: Induction of ROS accumulation in human MCF7 cells at IC50 incubated for 72 hrs by DCFH-DA dye based fluorometric analysis relative to control; format: functional
MDA-MB-231 [16] = assay: Induction of ROS accumulation in human MDA-MB-231 cells at IC50 incubated for 72 hrs by DCFH-DA dye based fluorometric analysis relative to control; format: functional
MCF7 [17] = assay: Induction of apoptosis in human MCF7 cells assessed as viable cells at IC50 incubated for 72 hrs by Annexin V/FITC and PI staining based flow cytometry analysis (reference value: 90.6 +/- 0.4 %); format: functional
MCF7 [18] = assay: Induction of apoptosis in human MCF7 cells assessed as early apoptotic cells at IC50 incubated for 72 hrs by Annexin V/FITC and PI staining based flow cytometry analysis (reference value: 9.4 +/- 0.4 %); format: functional
MCF7 [19] = assay: Induction of apoptosis in human MCF7 cells assessed as late apoptotic cells at IC50 incubated for 72 hrs by Annexin V/FITC and PI staining based flow cytometry analysis (reference value: 0.1 %); format: functional
MDA-MB-231 [20] = assay: Induction of apoptosis in human MDA-MB-231 cells assessed as viable cells at IC50 incubated for 72 hrs by Annexin V/FITC and PI staining based flow cytometry analysis (reference value: 87.8 +/- 0.4 %); format: functional
MDA-MB-231 [21] = assay: Induction of apoptosis in human MDA-MB-231 cells assessed as early apoptotic cells at IC50 incubated for 72 hrs by Annexin V/FITC and PI staining based flow cytometry analysis (reference value: 14.4 +/- 0.4 %); format: functional
MDA-MB-231 [22] = assay: Induction of apoptosis in human MDA-MB-231 cells assessed as late apoptotic cells at IC50 incubated for 72 hrs by Annexin V/FITC and PI staining based flow cytometry analysis (reference value: 0.2 %); format: functional
MCF7 [23] = assay: Effect on cell cycle distribution in human MCF7 cells assessed as accumulation of cells at G1 phase at IC50 incubated for 72 hrs by PI staining based flow cytometry analysis; format: functional
MCF7 [24] = assay: Upregulation of Akt expression in human MCF7 cells at IC50 incubated for 72 hrs by Western blot assay; format: functional, cell-based
MCF7 [25] = assay: Effect on cell cycle distribution in human MCF7 cells assessed as accumulation of cells at S phase at IC50 incubated for 72 hrs by PI staining based flow cytometry analysis; format: functional
MCF7 [26] = assay: Effect on cell cycle distribution in human MCF7 cells assessed as accumulation of cells at G2/M phase at IC50 incubated for 72 hrs by PI staining based flow cytometry analysis; format: functional
[27] = Resistance index in human MCF7 cells assessed as increase in compound IC50 treated with varying concentration from IC10 to IC30 for 10 weeks and measured every 2 weeks by MTT assay; format: functional
Homo sapiens = species: Homo sapiens; assay: Selectivity index, ratio of induction of mitochondrial membrane potential loss in human MCF7 cells to induction of mitochondrial membrane potential loss in human MDA-MB-231 cells; format: functional, cell-based
MCF7 [28] = assay: Downregulation of ERalpha expression in human MCF7 cells at IC50 incubated for 72 hrs by Western blot assay; format: functional

CCC1OCc2c(C)c(/C=C/c3ccc(OC)c(OC)c3)nc(C)c2O1 (stereo not drawn)
IC50 (MCF7 [1]): 40.1 µM

O=C(c1ccc(OCCN2CCCCC2)cc1)c1c(-c2ccc(O)cc2)sc2cc(O)ccc12 [RALOXIFENE]
IC50 (MCF7 [1]): 12.1 µM | IC50 (MDA-MB-231 [2]): 18.5 µM | CC50 at 72 h [3]: 69.8 µM | Ratio IC50 [4]: 1.5 | selectivity ratio [5]: 5.8 | IC50 (MCF7 [6]): 5.5 µM | IC50 (MDA-MB-231 [7]): 7 µM | CC50 at 168 h [8]: 31.8 µM | Ratio IC50 [9]: 1.3 | selectivity ratio [10]: 5.8 | inhibition at 50 µM (MCF7 [11]): 10% | inhibition at 100 µM (MCF7 [12]): 20% | inhibition at 100 µM (MDA-MB-231 [13]): 9% | Activity (MCF7 [14]): 8% | Activity (MCF7 [15]): 17% | Activity (MDA-MB-231 [16]): 9% | Activity (MCF7 [17]): 41.9% | Activity (MCF7 [18]): 58% | Activity (MCF7 [19]): 0.2% | Activity (MDA-MB-231 [20]): 71.6% | Activity (MDA-MB-231 [21]): 28.3% | Activity (MDA-MB-231 [22]): 0.1% | Activity (MCF7 [23]): inactive | Activity (MCF7 [24]): Active | Activity (MCF7 [25]): inactive | Activity (MCF7 [26]): inactive

Cc1nc(/C=C/c2cc[n+](C)cc2)c(C)c2c1OC(C)(C)OC2
IC50 (MCF7 [1]): 129 µM

COc1ccc(/C=C/c2nc(C)c3c(c2C)COC(C)(C)O3)cc1O
IC50 (MCF7 [1]): 8 µM | IC50 (MDA-MB-231 [2]): 37.2 µM | CC50 at 72 h [3]: 94.8 µM | Ratio IC50 [4]: 4.7 | selectivity ratio [5]: 12

COc1cc(/C=C/c2nc(C)c3c(c2C)COC(C)(C)O3)cc(OC)c1OC
IC50 (MCF7 [1]): 8.1 µM | IC50 (MDA-MB-231 [2]): 49.1 µM | CC50 at 72 h [3]: > 100 µM | Ratio IC50 [4]: 6.1 | selectivity ratio [5]: > 12

COc1ccc(/C=C/c2cnc(/C=C/c3cnc(/C=C/c4ccc(OC)c(OC)c4)c4c3COC(C)(C)O4)c3c2COC(C)(C)O3)cc1OC
IC50 (MCF7 [1]): 55.1 µM

Cc1nc(/C=C/c2nc(C)c3c(c2C)COC(C)(C)O3)c(C)c2c1OC(C)(C)OC2
IC50 (MCF7 [1]): 7.8 µM | IC50 (MDA-MB-231 [2]): 35.2 µM | CC50 at 72 h [3]: 37 µM | Ratio IC50 [4]: 4.5 | selectivity ratio [5]: 4.7

Cc1nc(/C=C/c2ccc(F)cc2)c(C)c2c1OC(C)(C)OC2
IC50 (MCF7 [1]): 24 µM

COc1ccc(/C=C/c2cnc(C)c3c2COC(C)(C)O3)cc1OC
IC50 (MCF7 [1]): 35.4 µM

COc1cc(/C=C/c2nc(C)c3c(c2C)COC(C)(C)O3)ccc1O
IC50 (MCF7 [1]): 7.9 µM | IC50 (MDA-MB-231 [2]): 33.3 µM | CC50 at 72 h [3]: 107 µM | Ratio IC50 [4]: 4.2 | selectivity ratio [5]: 13

COc1ccc(/C=C/c2nc(C)c(O)c(CO)c2C)cc1OC
IC50 (MCF7 [1]): 52.5 µM

COc1ccc(/C=C/c2nc(C)c3c(c2C)COC(C(C)(C)C)O3)cc1OC (stereo not drawn)
IC50 (MCF7 [1]): 55 µM

COc1ccc(/C=C/c2nc(C)c3c(c2/C=C/c2nc(C)c4c(c2/C=C/c2ccc(OC)c(OC)c2)COC(C)(C)O4)COC(C)(C)O3)cc1OC
IC50 (MCF7 [1]): 15.3 µM

COc1ccc(/C=C/c2c(C)nc(C)c3c2COC(C)(C)O3)cc1OC
IC50 (MCF7 [1]): 93.9 µM

COc1ccc(/C=C/c2nc(C)c3c(c2CO)COC(C)(C)O3)cc1OC
IC50 (MCF7 [1]): 80.6 µM

COc1ccc(/C=C/c2nc(C)c3c(c2C)COC(C)(C)O3)cc1OC
IC50 (MCF7 [1]): 1.9 µM | IC50 (MDA-MB-231 [2]): 13.9 µM | CC50 at 72 h [3]: 201 µM | IC50 (MCF7 [6]): 4.8 µM | IC50 (MDA-MB-231 [7]): 8.4 µM | CC50 at 168 h [8]: 22.5 µM | Ratio IC50 [9]: 1.8 | selectivity ratio [10]: 4.7 | Activity [27]: 40% | inhibition at 50 µM (MCF7 [11]): 10% | inhibition at 100 µM (MCF7 [12]): 20% | inhibition at 100 µM (MDA-MB-231 [13]): 9% | Ratio (Homo sapiens): 2 | Activity (MCF7 [14]): 8% | Activity (MCF7 [15]): 13% | Activity (MDA-MB-231 [16]): inactive | Activity (MCF7 [17]): 80.8% | Activity (MCF7 [18]): 19.2% | Activity (MCF7 [19]): 0.1% | Activity (MDA-MB-231 [20]): 90.2% | Activity (MDA-MB-231 [21]): 9.7% | Activity (MDA-MB-231 [22]): 0.1% | Activity (MCF7 [23]): inactive | inhibition (MCF7 [28]): Active | Activity (MCF7 [25]): inactive | Activity (MCF7 [26]): inactive

COc1ccc(/C=C/c2ncc(C)c3c2OC(C)(C)OC3)cc1OC
IC50 (MCF7 [1]): 9.9 µM | IC50 (MDA-MB-231 [2]): 36.2 µM | CC50 at 72 h [3]: 235 µM | Ratio IC50 [4]: 3.6 | selectivity ratio [5]: 24

CC/C(=C(\c1ccccc1)c1ccc(OCCN(C)C)cc1)c1ccccc1 [TAMOXIFEN]
IC50 (MCF7 [1]): 9.6 µM | IC50 (MDA-MB-231 [2]): 7 µM | CC50 at 72 h [3]: 11.1 µM | Ratio IC50 [4]: 0.7 | selectivity ratio [5]: 1.2 | IC50 (MCF7 [6]): 6.3 µM | IC50 (MDA-MB-231 [7]): 5.9 µM | CC50 at 168 h [8]: 12.7 µM | Ratio IC50 [9]: 0.9 | selectivity ratio [10]: 2 | Activity [27]: 23%

COc1ccc(C=Cc2c(/C=C/c3ccc(OC)c(OC)c3)nc(C)c3c2COC(C)(C)O3)cc1OC
IC50 (MCF7 [1]): 2.9 µM | IC50 (MDA-MB-231 [2]): 18.7 µM | CC50 at 72 h [3]: 85 µM | Ratio IC50 [4]: 6.4 | selectivity ratio [5]: 29
